Measured values published in patent US20230012570A1, “BICYCLIC COMPOUND USED AS SELECTIVE ANDROGEN RECEPTOR MODULATOR” (MEDSHINE DISCOVERY INC., priority 2019, published 2023).
pEC50: −log10 of the molar value. Where two headings read alike, the source gives them in different places.

Assays:
[1] = target: T1, androgen receptor (AR) (Homo sapiens, UniProt P10275); assay: Agonistic effect of test compounds on androgen receptor (AR), LiveBLAzer FRET reporter cell assay; format: cell-based
T1 sequence (P10275 1-920): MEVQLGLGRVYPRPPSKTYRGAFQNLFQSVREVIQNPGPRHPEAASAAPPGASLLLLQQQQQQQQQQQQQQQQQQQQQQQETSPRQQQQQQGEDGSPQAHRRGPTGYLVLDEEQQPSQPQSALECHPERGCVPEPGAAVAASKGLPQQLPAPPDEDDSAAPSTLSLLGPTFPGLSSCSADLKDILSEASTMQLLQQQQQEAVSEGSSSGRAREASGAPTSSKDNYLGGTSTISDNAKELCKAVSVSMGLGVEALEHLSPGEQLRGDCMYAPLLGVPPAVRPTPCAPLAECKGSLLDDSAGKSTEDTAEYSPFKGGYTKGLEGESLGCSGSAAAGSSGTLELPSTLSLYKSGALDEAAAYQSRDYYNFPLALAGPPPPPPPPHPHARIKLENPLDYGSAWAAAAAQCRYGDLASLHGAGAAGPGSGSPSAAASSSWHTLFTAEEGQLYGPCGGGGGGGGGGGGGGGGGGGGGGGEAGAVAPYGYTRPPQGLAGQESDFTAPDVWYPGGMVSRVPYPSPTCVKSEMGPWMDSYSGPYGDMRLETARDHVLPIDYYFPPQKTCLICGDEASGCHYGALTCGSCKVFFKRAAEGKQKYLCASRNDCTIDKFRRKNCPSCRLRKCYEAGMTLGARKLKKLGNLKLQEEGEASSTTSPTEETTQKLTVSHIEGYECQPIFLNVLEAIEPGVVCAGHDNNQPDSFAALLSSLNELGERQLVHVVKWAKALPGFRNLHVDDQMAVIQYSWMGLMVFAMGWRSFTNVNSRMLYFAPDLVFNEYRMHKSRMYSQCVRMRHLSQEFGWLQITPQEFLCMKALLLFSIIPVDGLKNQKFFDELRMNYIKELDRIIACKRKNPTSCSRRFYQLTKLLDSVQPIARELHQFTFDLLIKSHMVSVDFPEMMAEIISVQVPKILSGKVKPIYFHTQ
Protocol: Experimental Embodiment 1: Agonistic Effect of Test Compounds on Androgen Receptor (AR)
1. Preparation of Compounds, Placing in Plates:
1.1 Preparation of compounds: the test compounds were diluted to the working concentration, and each compound was diluted by 4 times with Echo for 10 concentration gradients, and the compounds were added to a 384-well cell plate according to the microplate layout diagram, with 200 nL per well;
1.2 AR cell assay medium: 87% Opti-MEM (reduced serum medium), 10% Dialyzed FBS (dialyzed fetal bovine serum), 1% NEAA (non-essential amino acids), 1% sodium pyruvate and 1% penicillin-streptomycin;
1.3 culture medium, trypsin and Dulbecco's phosphate buffer were preheated in a 37° C. water bath;
1.4 the original medium in the cell culture flask was removed, and the cells were washed once with 6 mL of Dulbecco's phosphate buffer;
1.5 3.5 mL of trypsin was added to the cell culture flask, and the flask was gently shaken to make the trypsin fully contact with the cells, the trypsin was removed; after aspirating the trypsin, the culture flask was placed in a 37° C. incubator containing 5% CO2 for about 1 minute;
1.6 the cells were resuspended with 10 mL of cell detection medium, and about 0.8 mL of cell suspension was taken out for counting (ViCell XR)
1.7 the cell suspension was diluted with culture medium to 2.5×10^5 cells per mL;
1.8 40 !IL of cell suspension was added to each well of the cell plate, and 40 μL of cell culture medium was added to the other wells, and the cells were incubated in a 37° C. incubator containing 5% CO2 for 16 hours.
2. Reading the Board and Analyzing Data:
2.1 Preparation of solution A: 182 μL of DMSO was added to 200 μg of LiveBLAzer™-FRET B/G/g substrate (CCF4-AM). The solution A was packaged and stored in a refrigerator at −20° C.;
2.2 preparation of 6×substrate buffer: 15 μL of solution A was added to 150 μL of solution B, and the mixture was vortexed evenly, then 2335 μL of solution C was added to the above solution and vortexed evenly;
2.3 the cell culture plate was taken out, and 8μL of 6×substrate buffer was added to each well, shaken for 1 minute, and centrifuged at 1000 rpm for 10 seconds; after sealing the membrane, the cells were incubated at 23° C. for 2 hours, and the plate was read with Envision, and the curve EC50 value was fitted by Prism software.

[2] = Pharmacokinetic test in male SD rats, intravenous and intragastric administration, plasma LC-MS/MS; format: in vivo; details: rat; for Vd: read-out: Apparent volume of distribution Vdss; for clearance: read-out: Clearance rate Cl; for AUC(0-inf): read-out: Curve area (0-inf) AUC0-inf; for AUC(0-t): read-out: Curve area (0-t) AUC0-last; for half-life: read-out: Half-life T1/2 (converted); for bioavailability: oral, intragastric vs intravenous administration, read-out: Bioavailability F; for Cmax: read-out: Blood drug concentration Cmax; for Tmax: read-out: Peak time Tmax
Excerpt: Experimental Embodiment 2: Pharmacokinetic Test of the Compounds of the Present Disclosure
Male SD rats were used as test animals, and LC-MS/MS method was used to determine the drug concentrations in plasma of rats at different time after intravenous and intragastric administration of compound 1A, compound 3A and compound 8A. To study the pharmacokinetic behavior of the compounds in rats and to evaluate their pharmacokinetic characteristics.
2.1 Test Drugs: Compound 1A, Compound 3A and Compound 8A
2.2 Test animals: 12 healthy adult male SD rats, divided into 6 groups with 2 rats in each group. The animal was purchased from Shanghai Sippr-BK laboratory animal Co. Ltd., and the animal production license number was SOCK (Shanghai) 2013-0016.
An appropriate amount of sample was weighed, and appropriate amounts of DMSO, polyethylene glycol-15 hydroxystearate and water were added in turn according to the volume ratio of 10:10:80, and the clarified state of 0.2 mg/mL was reached after stirring and sonication for intravenous administration.
An appropriate amount of sample was weighed and dissolved in 5% Tween 80+90% polyethylene glycol 400+5% polyvinylpyrrolidone K30 solution, and the clarified state of 0.5 mg/mL was reached after stirring and sonication for intragastric administration.
12 male SD rats were divided into 6 groups, and after fasting overnight, groups 1-3 were administered intravenously with a volume of 5 mL/kg; groups 4-6 were administered by gavage with a volume of 10 mL/kg.
After compound 1A, compound 3A and compound 8A were intravenously administered to SD rats, 40 μL of blood was collected at 0.0833, 0.25, 0.5, 1, 2, 4, 8 and 24 hours, respectively, and placed in a test tube containing 2 μL of EDTA-K2. After compound 1A and compound 3A were administered by gavage, 40 μL of blood was collected at 0.25, 0.5, 1, 2, 4, 8 and 24 hours, respectively, and placed in a test tube containing 2 μL of EDTA-K2. The tubes were centrifuged at 4000 rpm for 15 minutes to separate the plasma and stored at −60° C. Animals were allowed to eat 2 hours after administration.
The content of the test compounds in the plasma of rats after intravenous and intragastric administration was determined by LC-MS/MS method. The linear range of the method was 2.00-6000 nmol/L; plasma samples were analyzed after acetonitrile precipitation protein treatment.

[3] = intravenous administration, dose 1.1 (1A), 0.69 (3A), 0.716 (8A) mg/kg
[4] = po, intragastric administration, dose 4.92 (1A), 4.2 (3A), 4.59 (8A) mg/kg
[5] = AR cells, 16 hours incubation, 10 concentrations, read-out: EC50, agonist activity on androgen receptor

## N#Cc1ccc(N2CC3CC3C2C(O)C(F)(F)F)cc1C(F)(F)F (single isomer, unassigned) [Compound 1A]
[1]
  pEC50: 9.09
[2]; [3]
  Vd: 1.43 L/kg
  clearance: 1.24 L/h/kg
  AUC(0-inf): 2.5 µM·h
  AUC(0-t): 2.47 µM·h
  half-life: 1.37 h
[2]
  bioavailability: 11%
[2]; [4]
  Cmax: 0.223 µM
  AUC(0-t): 1.24 µM·h
  Tmax: 4 h

## N#Cc1c(F)cc(N2CC3CC3C2C(O)C(F)(F)F)cc1Cl (single isomer, unassigned) [Compound 5A]
[1]
  pEC50: 9.43

## N#Cc1c(F)cc(N2CC3CC3C2C(O)C(F)(F)F)cc1C(F)(F)F (single isomer, unassigned) [Compound 7A]
[1]
  pEC50: 9.28

## N#Cc1ncc(N2CC3CC3C2C(O)C(F)(F)F)cc1C(F)(F)F (single isomer, unassigned) [Compound 8A]
[1]; [5]
  pEC50: 8.49
[2]; [3]
  Vd: 2.22 L/kg
  clearance: 0.419 L/h/kg
  AUC(0-inf): 4.87 µM·h
  AUC(0-t): 4.78 µM·h
  half-life: 4.18 h
[2]
  bioavailability: 41%
[2]; [4]
  Cmax: 1.66 µM
  AUC(0-inf): 12.9 µM·h
  AUC(0-t): 12.7 µM·h
  half-life: 3.69 h
  Tmax: 4 h

## N#Cc1ncc(N2CC3CC3C2C(O)C(F)(F)F)cc1OC(F)F (single isomer, unassigned) [Compound 9A]
[1]; [5]
  pEC50: 7.32

## N#Cc1ncc(N2CC3CC3C2C(O)C(F)(F)F)cc1Cl (single isomer, unassigned) [Compound 10A]
[1]; [5]
  pEC50: 7.25

## COc1cc(N2CC3CC3C2C(O)C(F)(F)F)cnc1C#N (single isomer, unassigned) [Compound 11A]
[1]; [5]
  pEC50: 6.87

## N#Cc1ccc(N2C[C@@H]3COC[C@@H]3[C@H]2C(O)C(F)(F)F)cc1C(F)(F)F (single isomer, unassigned) [Compound 14A]
[1]
  pEC50: 9.41

## N#Cc1ccc(N2CC3CC3C2C(O)C(F)(F)F)cc1C(F)F (stereo not shown) [Mixture of compounds 2A and 2B]
[1]
  pEC50: 8.06

## N#Cc1cc(N2CC3CC3C2C(O)C(F)(F)F)cc(F)c1C#N (stereo not shown) [Mixture of compounds 6A and 6B]
[1]; [5]
  pEC50: 8.37

## N#Cc1ncc(N2CC3C(C2C(O)C(F)(F)F)C3(F)F)cc1C(F)(F)F (stereo not shown) [Mixture of compounds 12A and 12B]
[1]; [5]
  pEC50: 8.20
